Data reported in patent US7098220B2, “Imidazopyridine derivatives, preparation method and pharmaceutical compositions containing same” (Les Laboratoires Servier, priority 2002, dated 2006).

Experiments:
[1] = system: AMPK; assay: AMPK activity in a cell model: hepatocytes isolated from rats; format: cell-based, rat; settings: 500 μM, after 30 minutes, SAMS peptide phosphorylation with [γ-32P]-ATP
Description: AMPK Activity in a Cell Model: Hepatocytes Isolated from Rats
The hepatocytes are isolated according to the technique of Berry and Friend [J. Cell Biol, 43, 506–520 (1969)]. The AMPK activity was measured according to the method described by Davies el al. [Eur. J. Biochem., 186, 123–128 (1989)]. The latter involves phosphorylation starting from [γ-^32P]-ATP of a peptide substrate (SAMS), based on the sequence surrounding the site phosphorylated by the AMPK of the ACC. The reaction for measuring the AMPK activity ends with the deposition of an aliquot of the reaction medium on a phosphocellulose paper (Whatman P81), on which the SAMS peptide is fixed and the radioactivity of which is measured after washing.
By way of example, the compound of Example 4 activates AMPK, after 30 minutes at a concentration of 500 μM, by 312% (compared with the base value), whereas the same concentration of AICA riboside, used as reference, under the same conditions, activates it by 178%.

[2] = system: obese ob/ob mouse; assay: Hypolipaemic activity in the obese ob/ob mouse; format: in vivo
Description: The products of the invention were tested in vivo in the obese ob/ob mouse, used as a model of obesity-associated insulin resistance.

Compound	AMPK activation (compared with the base value) [1] [%]	reduction of triglycerides ([2]; 125 mg/kg per os)	reduction of triglycerides ([2]; 250 mg/kg per os)
Nc1nc2cccnc2n1C1CCCCCC1 [Example 4, 3-Cycloheptyl-3H-imidazo[4,5-b]pyridine-2-amine]	312	significantly reduces the triglycerides	
CN(C)C(=N)N=C(N)N [metformin]			the same reduction is obtained
NC(=O)c1ncn([C@@H]2O[C@H](CO)[C@@H](O)[C@H]2O)c1N [AICA riboside]	178		
